These compounds were tested on IL-1β release from THP-1 cells (assay: IL-1β Release Assay (Alternate Method), THP-1 cells). Conditions: Homo sapiens, THP-1, read-out: IL-1β % inhibition.
Format: cell-based, human
Method in brief: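 THP-1 cells differentiated 16 h with 100 ng/mL LPS plus 100 ng/mL IFN-γ, reprimed 2 h with 100 ng/mL LPS, pretreated 30 min with compound, then challenged 45 min with 250 uM BzATP (final). Supernatant IL-1β quantified by ELISA; percent inhibition from background-adjusted levels versus untreated cells.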
`O=C(Nc1ncnc2c1CCN(Cc1ccccc1)C2)C12CC3CC(CC(C3)C1)C2` [Compound 334, Adamantane-1-carboxylic acid(7-benzyl-5,6,7,8-tetrahydro-pyrido[3,4-d]pyrimidin-4-yl)-amide] was tested, and the inhibition at 0.3 µM was 50 to 75%.

Same assay, conditions: Homo sapiens; at 0.3 μM; THP-1 cells; read-out: IL-1β % inhibition
In the case of `CC12CC3CC(C)(C1)CC(CC(=O)Nc1ncnc4c1CCN(Cc1ccccc1)C4)(C3)C2` [Compound 341, N-(7-Benzyl-5,6,7,8-tetrahydro-pyrido[3,4-d]pyrimidin-4-yl)-2-(3,5-dimethyl-adamantan-1-yl)-acetamide], the inhibition at 0.3 µM is reported as 25 to 50%. `O=C(CC12CC3CC(CC(C3)C1)C2)Nc1ccnc2c1CCN(Cc1ccccc1)C2` [Compound 342, 2-Adamantan-1-yl-N-(7-benzyl-5,6,7,8-tetrahydro-[1,7]naphthyridin-4-yl)-acetamide] showed an inhibition at 0.3 µM of 0 to 25%. Compound `CC(C)(C(=O)Nc1ncnc2c1CCN(C(=O)c1c(F)cccc1F)C2)C12CC3CC(CC(C3)C1)C2` [Compound 361] has an inhibition at 0.3 µM of 0 to 25%. In the case of `Cc1ncc2c(c1C(=O)NCC13CC4CC(CC(C4)C1)C3)CCN(Cc1ccccc1)C2` [Compound 368, 7-Benzyl-3-methyl-5,6,7,8-tetrahydro-[2,7]naphthyridine-4carboxylic acid (adamantan-1-ylmethyl)-amide], the inhibition at 0.3 µM is reported as 0 to 25%.

Same assay, conditions: at 0.3 μM; THP-1 cells
With `O=C(CC12CC3CC(CC(C3)C1)C2)Nc1ncnc2c1CCN(Cc1ccc3cc[nH]c3c1)C2` [Compound 332] the IL-1β % inhibition was “+++ (compound exhibited 50-75% inhibition at 0.3 μM)”. For `O=C(CC12CC3CC(CC(C3)C1)C2)Nc1ncnc2c1CCN(Cc1ccc3c(c1)OCCCO3)C2` [Compound 333], the IL-1β % inhibition was “+++ (compound exhibited 50-75% inhibition at 0.3 μM)”. With `COc1cccc(CN2CCc3c(ncnc3C(=O)NCC34CC5CC(CC(C5)C3)C4)C2)c1` [Compound 335] the IL-1β % inhibition was “++ (compound exhibited 25-50% inhibition at 0.3 μM)”. With `Cc1ccccc1CN1CCc2c(ncnc2C(=O)NCC23CC4CC(CC(C4)C2)C3)C1` [Compound 336] the IL-1β % inhibition was “++++ (compound exhibited 75% or greater inhibition at 0.3 μM)”. In the case of `O=C(NCC12CC3CC(CC(C3)C1)C2)c1ncnc2c1CCN(Cc1ccccc1Cl)C2` [Compound 337], the IL-1β % inhibition is reported as “++ (compound exhibited 25-50% inhibition at 0.3 μM)”. `O=C(NCC12CC3CC(CC(C3)C1)C2)c1ncnc2c1CCN(Cc1ccc(F)cc1)C2` [Compound 338] was tested, and the IL-1β % inhibition was “++++ (compound exhibited 75% or greater inhibition at 0.3 μM)”. `CC(C)(C(=O)Nc1ncnc2c1CCN(Cc1ccccc1)C2)C12CC3CC(CC(C3)C1)C2` [Compound 339] was tested, and the IL-1β % inhibition was “+ (compound exhibited 0-25% inhibition at 0.3 μM)”. `O=C(NCC12CC3CC(CC(C3)C1)C2)c1ncnc2c1CCN(Cc1ccc3c(c1)OCO3)C2` [Compound 340] was tested, and the IL-1β % inhibition was “+++ (compound exhibited 50-75% inhibition at 0.3 μM)”. With `CC12CC3CC(C)(C1)CC(C(C)(C)C(=O)Nc1ncnc4c1CCN(Cc1ccccc1)C4)(C3)C2` [Compound 343] the IL-1β % inhibition was “+ (compound exhibited 0-25% inhibition at 0.3 μM)”. With `CC12CC3(C)CC(C)(C1)CC(CC(=O)Nc1ncnc4c1CCN(Cc1ccccc1)C4)(C2)C3` [Compound 344] the IL-1β % inhibition was “+ (compound exhibited 0-25% inhibition at 0.3 μM)”. With `CC12CC3(C)CC(C)(C1)CC(C(C)(C)C(=O)Nc1ncnc4c1CCN(Cc1ccccc1)C4)(C2)C3` [Compound 345] the IL-1β % inhibition was “+ (compound exhibited 0-25% inhibition at 0.3 μM)”. For `CC12CC3(C)CC(C)(C1)CC(C(=O)Nc1ncnc4c1CCN(Cc1ccccc1)C4)(C2)C3` [Compound 346], the IL-1β % inhibition was “+ (compound exhibited 0-25% inhibition at 0.3 μM)”. `CC(C)(C(=O)Nc1ncnc2c1CCN(Cc1ccc(F)cc1F)C2)C12CC3CC(CC(C3)C1)C2` [Compound 347] was tested, and the IL-1β % inhibition was “+ (compound exhibited 0-25% inhibition at 0.3 μM)”. In the case of `CC(C)(C(=O)Nc1ncnc2c1CCN(Cc1ccccc1Cl)C2)C12CC3CC(CC(C3)C1)C2` [Compound 348], the IL-1β % inhibition is reported as “+ (compound exhibited 0-25% inhibition at 0.3 μM)”. In the case of `Cc1ccccc1CN1CCc2c(ncnc2NC(=O)C(C)(C)C23CC4CC(CC(C4)C2)C3)C1` [Compound 349], the IL-1β % inhibition is reported as “+ (compound exhibited 0-25% inhibition at 0.3 μM)”. With `CC(C)(C(=O)Nc1ncnc2c1CCN(Cc1ccc3c(c1)OCCO3)C2)C12CC3CC(CC(C3)C1)C2` [Compound 350] the IL-1β % inhibition was “+ (compound exhibited 0-25% inhibition at 0.3 μM)”. For `CC(C)(C(=O)Nc1ncnc2c1CCN(Cc1ccc3cc[nH]c3c1)C2)C12CC3CC(CC(C3)C1)C2` [Compound 351], the IL-1β % inhibition was “+ (compound exhibited 0-25% inhibition at 0.3 μM)”. For `CC(C)(C(=O)Nc1ncnc2c1CCN(Cc1ccc(F)cc1)C2)C12CC3CC(CC(C3)C1)C2` [Compound 352], the IL-1β % inhibition was “+ (compound exhibited 0-25% inhibition at 0.3 μM)”. `CC(C)(C(=O)Nc1ncnc2c1CCN(S(=O)(=O)Cc1ccccc1)C2)C12CC3CC(CC(C3)C1)C2` [Compound 353] was tested, and the IL-1β % inhibition was “+ (compound exhibited 0-25% inhibition at 0.3 μM)”. For `CC(C)(C(=O)Nc1ncnc2c1CCN(S(=O)(=O)c1cccc(Cl)c1)C2)C12CC3CC(CC(C3)C1)C2` [Compound 354], the IL-1β % inhibition was “+ (compound exhibited 0-25% inhibition at 0.3 μM)”. `CC(C)(C(=O)Nc1ncnc2c1CCN(S(=O)(=O)c1ccc(F)c(F)c1)C2)C12CC3CC(CC(C3)C1)C2` [Compound 355] was tested, and the IL-1β % inhibition was “+ (compound exhibited 0-25% inhibition at 0.3 μM)”. `CC(C)(C(=O)Nc1ncnc2c1CCN(S(=O)(=O)Cc1ccc(Cl)c(Cl)c1)C2)C12CC3CC(CC(C3)C1)C2` [Compound 356] was tested, and the IL-1β % inhibition was “+ (compound exhibited 0-25% inhibition at 0.3 μM)”. With `CC(C)(C(=O)Nc1ncnc2c1CCN(S(=O)(=O)Cc1ccc(Cl)cc1)C2)C12CC3CC(CC(C3)C1)C2` [Compound 357] the IL-1β % inhibition was “+ (compound exhibited 0-25% inhibition at 0.3 μM)”. For `Cc1cccc(C(=O)N2CCc3c(ncnc3NC(=O)C(C)(C)C34CC5CC(CC(C5)C3)C4)C2)c1` [Compound 358], the IL-1β % inhibition was “+ (compound exhibited 0-25% inhibition at 0.3 μM)”. With `CC(C)(C(=O)Nc1ncnc2c1CCN(C(=O)c1cccc(C(F)(F)F)c1)C2)C12CC3CC(CC(C3)C1)C2` [Compound 359] the IL-1β % inhibition was “+ (compound exhibited 0-25% inhibition at 0.3 μM)”. `CC(C)(C(=O)Nc1ncnc2c1CCN(C(=O)c1ccc(Cl)c(Cl)c1)C2)C12CC3CC(CC(C3)C1)C2` [Compound 360] was tested, and the IL-1β % inhibition was “+ (compound exhibited 0-25% inhibition at 0.3 μM)”. `CC(C)(C(=O)Nc1ncnc2c1CCN(C(=O)c1c(F)cccc1Cl)C2)C12CC3CC(CC(C3)C1)C2` [Compound 362] was tested, and the IL-1β % inhibition was “+ (compound exhibited 0-25% inhibition at 0.3 μM)”. `CC(C)(C(=O)Nc1ncnc2c1CCN(C(=O)c1cc(F)ccc1F)C2)C12CC3CC(CC(C3)C1)C2` [Compound 363] was tested, and the IL-1β % inhibition was “+ (compound exhibited 0-25% inhibition at 0.3 μM)”. In the case of `CC(C)(C(=O)Nc1ncnc2c1CCN(C(=O)c1cccc(Cl)c1Cl)C2)C12CC3CC(CC(C3)C1)C2` [Compound 364], the IL-1β % inhibition is reported as “+ (compound exhibited 0-25% inhibition at 0.3 μM)”. For `CC(C)(C(=O)Nc1ncnc2c1CCN(C(=O)CC1CCCC1)C2)C12CC3CC(CC(C3)C1)C2` [Compound 365], the IL-1β % inhibition was “+ (compound exhibited 0-25% inhibition at 0.3 μM)”. With `CC(C)(C(=O)Nc1ncnc2c1CCN(C(=O)C1CCCCC1)C2)C12CC3CC(CC(C3)C1)C2` [Compound 366] the IL-1β % inhibition was “+ (compound exhibited 0-25% inhibition at 0.3 μM)”. In the case of `CC(C)(C)CC(=O)N1CCc2c(ncnc2NC(=O)C(C)(C)C23CC4CC(CC(C4)C2)C3)C1` [Compound 367], the IL-1β % inhibition is reported as “+ (compound exhibited 0-25% inhibition at 0.3 μM)”.
